Legend:
[1] = Human on trial (clinic test, peri-anal diseases); format: in vivo; conditions: pharmaceutical preparations made from the compound, humans suffering from peri-anal diseases
[2] = tested on: liver lysosome membrane; experiment: Test of stabilizing lysosome membrane (rat model of endotoxin shock); format: in vivo, wistar rat; conditions: rat with endotoxin shock, versus saline control
Description: • 1. Animals: wistar rat, provided by the 3rd Military Medical University P.R. China. • 2. Method: setting up a rat model of endotoxin shock, at the same time, for the liver lysosome of rat, carry out a test of stabilizing membranes in vivo and in vitro. The model animals were divided into two groups, in the experimental group, N-acetyl-D-glucosamine was used to carry out the treatment, in the control group, saline solution was used to carry out the same treatment. The condition of liver lysosome mambrane was reflected by the activity of acidic phosphatase (ACP). • 3. Result: the activity of free ACP in the control group and that in the experimental group are obviously different. • 4. […] V. Human on Trial

[3] = tested on: Pseudomonas aeruginosa; experiment: Test of resistance to field planting (Pseudomonas aeruginosa planting model); format: in vivo, Mice of Kunming Species; conditions: three dosages (high, middle, low), infused abdominally each day, feces culture
Description: 1. Animal: Mice of Kunming Species, Provided by the 3rd Military Medical University P.R. China.
Firstly, the animals used for experiment were infused abdominally with a suspension of Pseudomonas aeruginosa so as to make a Pseudomonas aeruginosa planting model, the mice that have Pseudomonas aeruginosa in the feces specimen cultured continuously for three days are deemed as positive. 32 mices which were positive in the experiment for making model were selected and divided into four groups, that is, three experimental groups with different dosages and one control group, eight mice in each group. The experimental groups are infused abdominally with N-acetyl-D glucosamine each day according to a schedule, while the control group is infused with saline solution. Cultivate the excrement every day, observe the saturation of Pseudomonas aeruginosa planting growth.

Structure (SMILES): CC(=O)N[C@@H]1[C@@H](O)[C@H](O)[C@@H](CO)O[C@H]1O [compound of formula (I), N-acetyl-D-glucosamine]
- relief of peri-anal symptoms [1]: able to eliminate or relieve quickly the peri-anal uncomfortableness, pain, exudation, pruritus and the like
- stabilization of liver lysosome membrane ([2]; in vivo and in vitro): able to effectively stabilize liver lysosome membrane
- release of acidic phosphatase (ACP) ([2]; liver lysosome): decrease the release of acidic phosphatase
- resistance to Pseudomonas aeruginosa planting in intestines [3]: able to effectively resist Pseudomonas aeruginosa in intestines

Source: patent US20050119224A1, “Use of n-acetyl-d-glucosamine in the manufacture of pharmaceutical useful for adjuvant treatment of perianal disease” (priority 2001, published 2005)
